Measurements as given in the Kinase Knowledgebase extract (Sharma et al. 2016).

target: PIK3CG (human) (UniProt P48736); assay: Assessment of PIK3CG Kinase Activity
Sequence (P48736 whole entry, looked up): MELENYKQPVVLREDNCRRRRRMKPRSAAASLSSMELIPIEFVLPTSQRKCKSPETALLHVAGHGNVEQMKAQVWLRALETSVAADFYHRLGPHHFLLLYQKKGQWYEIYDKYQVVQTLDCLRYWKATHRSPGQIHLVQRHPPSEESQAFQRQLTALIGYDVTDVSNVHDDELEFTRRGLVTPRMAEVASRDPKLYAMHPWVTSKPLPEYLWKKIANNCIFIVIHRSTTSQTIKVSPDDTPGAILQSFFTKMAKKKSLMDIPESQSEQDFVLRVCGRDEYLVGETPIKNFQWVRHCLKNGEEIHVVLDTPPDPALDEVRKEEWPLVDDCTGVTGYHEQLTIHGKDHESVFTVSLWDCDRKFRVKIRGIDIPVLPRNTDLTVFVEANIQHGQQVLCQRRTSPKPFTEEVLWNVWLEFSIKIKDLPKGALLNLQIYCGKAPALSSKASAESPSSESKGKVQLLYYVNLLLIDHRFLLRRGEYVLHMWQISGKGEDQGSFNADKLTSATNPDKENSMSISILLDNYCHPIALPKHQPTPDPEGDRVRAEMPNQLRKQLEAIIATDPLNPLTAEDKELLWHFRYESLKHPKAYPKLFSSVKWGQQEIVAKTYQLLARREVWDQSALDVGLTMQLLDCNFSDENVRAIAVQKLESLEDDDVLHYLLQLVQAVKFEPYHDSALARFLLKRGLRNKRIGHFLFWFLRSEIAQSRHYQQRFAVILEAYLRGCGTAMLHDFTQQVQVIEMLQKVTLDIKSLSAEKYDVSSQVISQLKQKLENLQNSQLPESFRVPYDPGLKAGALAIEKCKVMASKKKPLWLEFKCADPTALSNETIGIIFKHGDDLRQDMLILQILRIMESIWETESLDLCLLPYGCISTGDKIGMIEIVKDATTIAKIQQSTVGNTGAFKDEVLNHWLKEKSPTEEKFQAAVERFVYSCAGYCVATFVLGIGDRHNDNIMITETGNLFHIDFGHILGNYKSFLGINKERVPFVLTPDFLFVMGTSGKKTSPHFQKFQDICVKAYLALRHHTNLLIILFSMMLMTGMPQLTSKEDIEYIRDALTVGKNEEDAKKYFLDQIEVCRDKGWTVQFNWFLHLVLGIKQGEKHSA

Row | Structure (SMILES) | IC50 [nM]
1 | Cc1nc(C)c(S(=O)(=O)NCCNC(=O)Nc2nc3c(s2)-c2c(c(-c4ccccc4)nn2-c2ccccc2Cl)CC3)s1 | < 800
2 | CCn1cnc(CCNC(=O)Nc2nc3c(s2)-c2c(c(-c4cccnc4)nn2-c2ccccc2Cl)CC3)c1 | < 800
3 | CC(C)(C)OCCNC(=O)Nc1nc2c(s1)-c1c(c(-c3ccccc3)nn1-c1ccccc1Cl)CC2 | < 800
4 | CC(C)(C)OC(=O)N1CCC[C@@H]1CNC(=O)Nc1nc2c(s1)-c1c(c(-c3cncnc3)nn1-c1ccccc1Cl)CC2 | < 800
5 | CN(C)S(=O)(=O)c1ccccc1CNC(=O)Nc1nc2c(s1)-c1c(c(-c3ccccc3)nn1-c1ccccc1Cl)CC2 | < 800
6 | CCc1csc(CCNC(=O)Nc2nc3c(s2)-c2c(c(-c4cccnc4)nn2C2CCN(C4CCCC4)CC2)CC3)n1 | < 800
7 | O=C(NCc1ccc(-c2ncc[nH]2)cc1)Nc1nc2c(s1)-c1c(c(-c3cncnc3)nn1-c1ccccc1Cl)CC2 | < 800
8 | O=C(Nc1nc2c(s1)-c1c(c(-c3cccnc3)nn1-c1ccccc1Cl)CC2)N1CCC(N2CCNC2=O)CC1 | < 800
9 | Cn1cc(CNC(=O)Nc2nc3c(s2)-c2c(c(-c4cccnc4)nn2-c2ccccc2Cl)CC3)cn1 | < 800
10 | O=C(NCCN1CCCC1=O)Nc1nc2c(s1)-c1c(c(-c3ccccc3)nn1-c1ccccc1Cl)CC2 | < 800
11 | CC(C)COC(=O)N1CCC[C@@H]1CNC(=O)Nc1nc2c(s1)-c1c(c(-c3cncnc3)nn1-c1ccccc1Cl)CC2 | < 800
12 | CS(=O)(=O)c1cccc(CNC(=O)Nc2nc3c(s2)-c2c(c(-c4cncnc4)nn2-c2ccccc2Cl)CC3)c1 | < 800
13 | O=C(Nc1nc2c(s1)-c1c(c(-c3ccccc3)nn1-c1ccccc1Cl)CC2)NC1CCN(S(=O)(=O)c2ccccc2)CC1 | < 800
14 | O=C(NCCc1ccccn1)Nc1nc2c(s1)-c1c(c(-c3cncnc3)nn1-c1ccccc1Cl)CC2 | < 800
15 | O=C(NCCN1CCNC1=O)Nc1nc2c(s1)-c1c(c(-c3ccccc3)nn1-c1ccccc1Cl)CC2 | < 800
16 | O=C(NCC1CCCN(c2ncccn2)C1)Nc1nc2c(s1)-c1c(c(-c3cccnc3)nn1-c1ccccc1Cl)CC2 (configuration not stated) | < 800
17 | NC(=O)c1cccc(CNC(=O)Nc2nc3c(s2)-c2c(c(-c4cccnc4)nn2-c2ccccc2Cl)CC3)c1 | < 800
18 | CN(C)C(=O)N1CC[C@H](CNC(=O)Nc2nc3c(s2)-c2c(c(-c4ccccc4)nn2-c2cccc(Cl)c2)CC3)C1 | < 800
19 | CC(C)(C)OC(=O)N1CCC[C@H]1CNC(=O)Nc1nc2c(s1)-c1c(c(-c3cncnc3)nn1-c1ccccc1F)CC2 | < 800

Row | Structure (SMILES) | IC50 [nM]
20 | CC(C)(C)OC(=O)N1CC[C@@H](CNC(=O)Nc2nc3c(s2)-c2c(c(-c4cncnc4)nn2-c2ccccc2Cl)CC3)C1 | < 800
21 | CC(C)c1nnc(CCNC(=O)Nc2nc3c(s2)-c2c(c(-c4cccnc4)nn2-c2ccccc2Cl)CC3)o1 | < 800
22 | CCc1cnc(CCNC(=O)Nc2nc3c(s2)-c2c(c(-c4cccnc4)nn2C2CCN(C4CCCC4)CC2)CC3)o1 | < 800
23 | CN1CCN(Cc2ccc(NC(=O)Nc3nc4c(s3)-c3c(c(-c5cncnc5)nn3-c3ccccc3F)CC4)cc2)CC1 | < 800
24 | COC(=O)N1CCC[C@@H]1CNC(=O)Nc1nc2c(s1)-c1c(c(-c3cncnc3)nn1-c1ccccc1Cl)CC2 | < 800
25 | O=C(NCc1cccnc1N1CCCC1)Nc1nc2c(s1)-c1c(c(-c3cncnc3)nn1-c1ccccc1Cl)CC2 | < 800
26 | O=C(NCCN1CCOCC1)Nc1nc2c(s1)-c1c(c(-c3cncnc3)nn1-c1ccccc1Cl)CC2 | < 800
27 | CN[C@@H](C)C(=O)N1CC[C@H](CNC(=O)Nc2nc3c(s2)-c2c(c(-c4cncnc4)nn2-c2ccccc2Cl)CC3)C1 | < 800
28 | O=C(NC[C@H]1CCCN1C(=O)N1CCCC1)Nc1nc2c(s1)-c1c(c(-c3cncnc3)nn1-c1ccccc1Cl)CC2 | < 800
29 | CC(C)c1noc(CCNC(=O)Nc2nc3c(s2)-c2c(c(-c4cccnc4)nn2C2CCN(C)CC2)CC3)n1 | < 800
30 | O=C(NCC1CCCNC1)Nc1nc2c(s1)-c1c(c(-c3cncnc3)nn1-c1ccccc1Cl)CC2 (configuration not stated) | < 800
31 | CC(C)(C)OC(=O)CNC(=O)Nc1nc2c(s1)-c1c(c(-c3cccnc3)nn1C1CCN(C3CCCC3)CC1)CC2 | < 800
32 | O=C(NCCCN1CCOCC1)Nc1nc2c(s1)-c1c(c(-c3cncnc3)nn1-c1ccccc1Cl)CC2 | < 800
33 | CS(=O)(=O)c1ccc(CNC(=O)Nc2nc3c(s2)-c2c(c(-c4cncnc4)nn2-c2ccccc2Cl)CC3)cc1 | < 800
34 | Nc1nnc(CNC(=O)Nc2nc3c(s2)-c2c(c(-c4cncnc4)nn2-c2ccccc2Cl)CC3)[nH]1 | < 800
35 | O=C(NC[C@H]1CCCN1C(=O)Cc1ccccc1)Nc1nc2c(s1)-c1c(c(-c3cncnc3)nn1-c1ccccc1Cl)CC2 | < 800
36 | N#Cc1cccc(CNC(=O)Nc2nc3c(s2)-c2c(c(-c4cncnc4)nn2-c2ccccc2Cl)CC3)c1 | < 800
37 | O=C(NCCc1cn[nH]c1)Nc1nc2c(s1)-c1c(c(-c3cccnc3)nn1-c1ccccc1Cl)CC2 | < 800
38 | Cc1nn(C)cc1CNC(=O)Nc1nc2c(s1)-c1c(c(-c3cccnc3)nn1-c1ccccc1Cl)CC2 | < 800

Row | Structure (SMILES) | IC50 [nM]
39 | CC(C)(C)OC(=O)CC1(O)CCN(C(=O)Nc2nc3c(s2)-c2c(c(-c4cccnc4)nn2-c2ccccc2Cl)CC3)CC1 | < 800
40 | CN(C)c1cccc(CNC(=O)Nc2nc3c(s2)-c2c(c(C4CC4)nn2-c2ccccc2Cl)CC3)c1 | < 800
41 | CC(C)(C)OC(=O)N1CCC[C@@H]1CNC(=O)Nc1nc2c(s1)-c1c(c(-c3cccnc3)nn1-c1ccccc1Cl)CC2 | < 800
42 | CC(C)c1nnc(CCNC(=O)Nc2nc3c(s2)-c2c(c(C4CC4)nn2-c2ccccc2Cl)CC3)o1 | < 800
43 | CCc1cnc(CCNC(=O)Nc2nc3c(s2)-c2c(c(-c4ccccc4)nn2-c2cccc(Cl)c2)CC3)o1 | < 800
44 | COc1ccc(CCNC(=O)Nc2nc3c(s2)-c2c(c(-c4cncnc4)nn2-c2ccccc2Cl)CC3)cc1OC | < 800
45 | O=C(NCc1cccc(OC(F)(F)F)c1)Nc1nc2c(s1)-c1c(c(-c3cncnc3)nn1-c1ccccc1Cl)CC2 | < 800
46 | O=C(NCc1ncc[nH]1)Nc1nc2c(s1)-c1c(c(-c3cccnc3)nn1-c1ccccc1Cl)CC2 | < 800
47 | CCc1nnc(CCNC(=O)Nc2nc3c(s2)-c2c(c(-c4ccccc4)nn2-c2cccc(Cl)c2)CC3)o1 | < 800
48 | CNC(=O)[C@@H]1CCCC[C@H]1NC(=O)Nc1nc2c(s1)-c1c(c(-c3ccccc3)nn1-c1ccccc1Cl)CC2 | < 800
49 | CN(C)C(=O)CCNC(=O)Nc1nc2c(s1)-c1c(c(-c3ccccc3)nn1-c1ccccc1Cl)CC2 | < 800
50 | CCn1cnc(CCNC(=O)Nc2nc3c(s2)-c2c(c(-c4cccnc4)nn2C2CCN(C4CCCC4)CC2)CC3)c1 | < 800
51 | CN1CCC(n2nc(-c3cncnc3)c3c2-c2sc(NC(=O)NC[C@H]4CCCN4C(=O)OC(C)(C)C)nc2CC3)CC1 | < 800
52 | CC(C)CNC(=O)CCNC(=O)Nc1nc2c(s1)-c1c(c(-c3cncnc3)nn1-c1ccccc1Cl)CC2 | < 800
53 | CC(=O)Nc1cccc(CNC(=O)Nc2nc3c(s2)-c2c(c(-c4cccnc4)nn2-c2ccccc2Cl)CC3)c1 | < 800
54 | CCN1CCC(n2nc(-c3cccnc3)c3c2-c2sc(NC(=O)NCc4cccc(N5CCNC5=O)c4)nc2CC3)CC1 | < 800
55 | Cn1cc(CCNC(=O)Nc2nc3c(s2)-c2c(c(-c4cccnc4)nn2-c2ccccc2Cl)CC3)cn1 | < 800
56 | CCCn1cnc(CCNC(=O)Nc2nc3c(s2)-c2c(c(-c4cncnc4)nn2-c2ccccc2Cl)CC3)c1 | < 800
57 | Cc1nc[nH]c1-c1cccc(CNC(=O)Nc2nc3c(s2)-c2c(c(-c4cccnc4)nn2-c2ccccc2Cl)CC3)c1 | < 800
